In PubChem BioAssay (NCI):
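These data come from cells grown in 96-well plates and exposed to compound for 48 hours at five concentrations. The concentration for full growth arrest is given as TGI.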

Key:
Assay in all cases: NCI tumour cell line growth inhibition, 48 h
EKVX NSCLC = test system: EKVX NSCLC
OVCAR-8 ovarian = test system: OVCAR-8 ovarian
HL-60(TB) leukemia = test system: HL-60(TB) leukemia
MDA-MB-231 breast = test system: MDA-MB-231 breast
TK-10 renal = test system: TK-10 renal
SK-OV-3 ovarian = test system: SK-OV-3 ovarian
M14 melanoma = test system: M14 melanoma
CAKI-1 renal = test system: CAKI-1 renal
HCT-15 colon = test system: HCT-15 colon
OVCAR-3 ovarian = test system: OVCAR-3 ovarian
UACC-257 melanoma = test system: UACC-257 melanoma
HOP-92 NSCLC = test system: HOP-92 NSCLC
SW-620 colon = test system: SW-620 colon
OVCAR-4 ovarian = test system: OVCAR-4 ovarian
SF-295 CNS = test system: SF-295 CNS
SF-539 CNS = test system: SF-539 CNS
UO-31 renal = test system: UO-31 renal
ACHN renal = test system: ACHN renal
CCRF-CEM leukemia = test system: CCRF-CEM leukemia

## COc1ccc(NC(C)=O)cc1N1C(=O)/C(=C\c2cc(OC)c(OC)c(OC)c2)S(=O)(=O)C1c1ccccc1 (stereo not given)
EKVX NSCLC
  TGI: > 100 µM
OVCAR-8 ovarian
  TGI: > 100 µM
HL-60(TB) leukemia
  TGI: 43 µM
MDA-MB-231 breast
  TGI: > 100 µM
TK-10 renal
  TGI: > 100 µM
SK-OV-3 ovarian
  TGI: > 100 µM
M14 melanoma
  TGI: > 100 µM
CAKI-1 renal
  TGI: > 100 µM
HCT-15 colon
  TGI: > 100 µM
OVCAR-3 ovarian
  TGI: > 100 µM
UACC-257 melanoma
  TGI: > 100 µM
HOP-92 NSCLC
  TGI: > 100 µM
SW-620 colon
  TGI: > 100 µM
OVCAR-4 ovarian
  TGI: > 100 µM
SF-295 CNS
  TGI: > 100 µM
SF-539 CNS
  TGI: > 100 µM
UO-31 renal
  TGI: > 100 µM
ACHN renal
  TGI: > 100 µM
CCRF-CEM leukemia
  TGI: > 100 µM

## CCOC(=O)c1c(-c2ccccc2)[nH]c2ccc(Cl)cc2c1=O
EKVX NSCLC
  TGI: > 100 µM
OVCAR-8 ovarian
  TGI: > 100 µM
HL-60(TB) leukemia
  TGI: > 100 µM
MDA-MB-231 breast
  TGI: > 100 µM
TK-10 renal
  TGI: > 100 µM
SK-OV-3 ovarian
  TGI: > 100 µM
M14 melanoma
  TGI: > 100 µM
CAKI-1 renal
  TGI: > 100 µM
HCT-15 colon
  TGI: > 100 µM
OVCAR-3 ovarian
  TGI: 38.9 µM
UACC-257 melanoma
  TGI: > 100 µM
HOP-92 NSCLC
  TGI: 73.6 µM
SW-620 colon
  TGI: > 100 µM
OVCAR-4 ovarian
  TGI: 44.8 µM
SF-295 CNS
  TGI: > 100 µM
SF-539 CNS
  TGI: > 100 µM
UO-31 renal
  TGI: 70.8 µM
ACHN renal
  TGI: 93.2 µM
CCRF-CEM leukemia
  TGI: > 100 µM

## CNC(=S)NNC1=NCCCCN1
EKVX NSCLC
  TGI: > 100 µM
OVCAR-8 ovarian
  TGI: > 100 µM
HL-60(TB) leukemia
  TGI: > 100 µM
MDA-MB-231 breast
  TGI: > 100 µM
TK-10 renal
  TGI: > 100 µM
SK-OV-3 ovarian
  TGI: > 100 µM
M14 melanoma
  TGI: > 100 µM
CAKI-1 renal
  TGI: > 100 µM
HCT-15 colon
  TGI: > 100 µM
OVCAR-3 ovarian
  TGI: > 100 µM
UACC-257 melanoma
  TGI: > 100 µM
HOP-92 NSCLC
  TGI: > 100 µM
SW-620 colon
  TGI: > 100 µM
OVCAR-4 ovarian
  TGI: > 100 µM
SF-295 CNS
  TGI: > 100 µM
SF-539 CNS
  TGI: > 100 µM
UO-31 renal
  TGI: > 100 µM
ACHN renal
  TGI: > 100 µM
CCRF-CEM leukemia
  TGI: > 100 µM

## O=C1CCSc2c(cnc3ccccc23)N1
EKVX NSCLC
  TGI: > 100 µM
OVCAR-8 ovarian
  TGI: > 100 µM
HL-60(TB) leukemia
  TGI: > 100 µM
MDA-MB-231 breast
  TGI: > 100 µM
TK-10 renal
  TGI: > 100 µM
SK-OV-3 ovarian
  TGI: > 100 µM
M14 melanoma
  TGI: > 100 µM
CAKI-1 renal
  TGI: > 100 µM
HCT-15 colon
  TGI: > 100 µM
OVCAR-3 ovarian
  TGI: > 100 µM
UACC-257 melanoma
  TGI: > 100 µM
HOP-92 NSCLC
  TGI: > 100 µM
SW-620 colon
  TGI: > 100 µM
OVCAR-4 ovarian
  TGI: > 100 µM
SF-295 CNS
  TGI: > 100 µM
SF-539 CNS
  TGI: > 100 µM
UO-31 renal
  TGI: > 100 µM
ACHN renal
  TGI: > 100 µM
CCRF-CEM leukemia
  TGI: > 100 µM

## O=C(/C=C\c1ccccc1-c1ccccc1)c1ccccc1
EKVX NSCLC
  TGI: > 100 µM
OVCAR-8 ovarian
  TGI: > 100 µM
HL-60(TB) leukemia
  TGI: > 100 µM
MDA-MB-231 breast
  TGI: > 100 µM
TK-10 renal
  TGI: > 100 µM
SK-OV-3 ovarian
  TGI: > 100 µM
M14 melanoma
  TGI: > 100 µM
CAKI-1 renal
  TGI: > 100 µM
HCT-15 colon
  TGI: > 100 µM
OVCAR-3 ovarian
  TGI: > 100 µM
UACC-257 melanoma
  TGI: > 100 µM
HOP-92 NSCLC
  TGI: > 100 µM
SW-620 colon
  TGI: > 100 µM
OVCAR-4 ovarian
  TGI: > 100 µM
SF-295 CNS
  TGI: > 100 µM
SF-539 CNS
  TGI: > 100 µM
UO-31 renal
  TGI: > 100 µM
ACHN renal
  TGI: > 100 µM
CCRF-CEM leukemia
  TGI: > 100 µM
